Results: article PMC9501633, “Synthesis, Characterisation and Mechanism of Action of Anticancer 3-Fluoroazetidin-2-ones” (Pharmaceuticals, 2022)

Tests used:
HOP-62 = assay: NCI 60 cell line screen, NSCLung; type: cell-based, human; conditions: one dose 10 µM
HCT-15 = assay: NCI 60 cell line screen, Colon; type: cell-based, human; conditions: one dose 10 µM
SN12C = assay: NCI 60 cell line screen, Renal; type: cell-based, human; conditions: one dose 10 µM
SK-MEL-2 = assay: NCI 60 cell line screen, Melanoma; type: cell-based, human; conditions: one dose 10 µM
OVCAR-4 = assay: NCI 60 cell line screen, Ovarian; type: cell-based, human; conditions: one dose 10 µM
COLO 205 = assay: NCI 60 cell line screen, Colon; type: cell-based, human; conditions: one dose 10 µM
HL-60(TB) = assay: NCI 60 cell line screen, Leukaemia; type: cell-based, human; conditions: one dose 10 µM
T-47D = assay: NCI 60 cell line screen, Breast; type: cell-based, human; conditions: one dose 10 µM
CCRF-CEM = assay: NCI 60 cell line screen, Leukaemia; type: cell-based, human; conditions: one dose 10 µM
NCI/ADR-RES = assay: NCI 60 cell line screen, Ovarian; type: cell-based, human; conditions: one dose 10 µM
HCC-2998 = assay: NCI 60 cell line screen, Colon; type: cell-based, human; conditions: one dose 10 µM
M14 = assay: NCI 60 cell line screen, Melanoma; type: cell-based, human; conditions: one dose 10 µM
K-562 = assay: NCI 60 cell line screen, Leukaemia; type: cell-based, human
NCI 60 cell line panel = assay: NCI 60 cell line screen, whole panel; type: cell-based
Procedure: The antiproliferative effects of selected compounds 33, 37 and 43 were initially evaluated in the NCI 60 cell line screen at 10 μM concentration (see Supplementary Materials Table S3). […] . […] .
Compound 33 was next selected for evaluation in the NCI 60 cell line five-dose screen. The GI50 (50% growth inhibition), TGI (total growth inhibition) and LC50 (50% lethal concentration) were determined in the NCI panel of 60 cell lines, using the sulphorhodamine B (SRB) protein assay (Table 5). The GI50 value provides the growth inhibition of the selected compound, while the cytotoxic effect is evaluated in the LC50 value. […] . […] . Glioblastoma is an aggressive and fast-growing brain tumour with a median survival time of 9–16 months from diagnosis, and these tumours quickly evolve resistance to temozolomide chemotherapy, which is the only FDA-approved treatment. […] . Further mechanistic and cellular studies were carried out and are described below.
(§1) aData obtained from NCI in vitro human tumour cell screen 1 dose assay (10 µM). 33 (NCI

EKVX = assay: NCI 60 cell line screen, NSCLung; type: cell-based, human; conditions: one dose 10 µM
UACC-257 = assay: NCI 60 cell line screen, Melanoma; type: cell-based, human; conditions: one dose 10 µM
SF-268 = assay: NCI 60 cell line screen, CNS; type: cell-based, human; conditions: one dose 10 µM
SK-MEL-5 = assay: NCI 60 cell line screen, Melanoma; type: cell-based, human; conditions: one dose 10 µM
DU-145 = assay: NCI 60 cell line screen, Prostate; type: cell-based, human; conditions: one dose 10 µM
HOP-92 = assay: NCI 60 cell line screen, NSCLung; type: cell-based, human; conditions: one dose 10 µM
SF-539 = assay: NCI 60 cell line screen, CNS; type: cell-based, human; conditions: one dose 10 µM
RXF 393 = assay: NCI 60 cell line screen, Renal; type: cell-based, human; conditions: one dose 10 µM
SK-MEL-28 = assay: NCI 60 cell line screen, Melanoma; type: cell-based, human; conditions: one dose 10 µM
MALME-3M = assay: NCI 60 cell line screen, Melanoma; type: cell-based, human; conditions: one dose 10 µM
BT-549 = assay: NCI 60 cell line screen, Breast; type: cell-based, human; conditions: one dose 10 µM
leukaemia panel = assay: NCI 60 cell line one-dose screen, panel mean; type: cell-based; conditions: Homo sapiens, one dose 10 μM, read-out: mean growth inhibition
Procedure: The antiproliferative effects of selected compounds 33, 37 and 43 were initially evaluated in the NCI 60 cell line screen at 10 μM concentration (see Supplementary Materials Table S3).
as §1

NCI-H460 = assay: NCI 60 cell line screen, NSCLung; type: cell-based, human; conditions: one dose 10 µM
HT29 = assay: NCI 60 cell line screen, Colon; type: cell-based, human
SK-OV-3 = assay: NCI 60 cell line screen, Ovarian; type: cell-based, human; conditions: one dose 10 µM
SR = assay: NCI 60 cell line screen, Leukaemia; type: cell-based, human; conditions: one dose 10 µM
OVCAR-3 = assay: NCI 60 cell line screen, Ovarian; type: cell-based, human; conditions: one dose 10 µM
KM12 = assay: NCI 60 cell line screen, Colon; type: cell-based, human; conditions: one dose 10 µM

## CCOc1ccc(C2N(c3cc(OC)c(OC)c(OC)c3)C(=O)C2(F)F)cc1 (stereo not drawn) [Compound 37, 4-(4-Ethoxyphenyl)-3,3-difluoro-1-(3,4,5-trimethoxyphenyl)azetidin-2-one]
HOP-62; Homo sapiens
  inhibition at 10 µM: 59.2%
HOP-62
  Growth %: 40.81%
HCT-15; Homo sapiens
  inhibition at 10 µM: 77.5%
HCT-15
  Growth %: 22.55%
SN12C; Homo sapiens
  inhibition at 10 µM: 49%
SN12C
  Growth %: 50.97%
SK-MEL-2; Homo sapiens
  inhibition at 10 µM: 8.22%
SK-MEL-2
  Growth %: 91.78%
OVCAR-4; Homo sapiens
  inhibition at 10 µM: 50.4%
OVCAR-4
  Growth %: 49.59%
COLO 205; Homo sapiens
  inhibition at 10 µM: 89.2%
COLO 205
  Growth %: 10.78%
HL-60(TB); Homo sapiens
  inhibition at 10 µM: 116%
HL-60(TB)
  Growth %: -15.97%
T-47D; Homo sapiens, T47D
  inhibition at 10 µM: 30%
T-47D
  Growth %: 70.03%
CCRF-CEM; Homo sapiens
  inhibition at 10 µM: 89.8%
CCRF-CEM
  Growth %: 10.2%
NCI/ADR-RES; Homo sapiens
  inhibition at 10 µM: 71.1%
NCI/ADR-RES
  Growth %: 28.94%
HCC-2998; Homo sapiens
  inhibition at 10 µM: 18.3%
HCC-2998
  Growth %: 81.66%
M14; Homo sapiens
  inhibition at 10 µM: 72.5%
M14
  Growth %: 27.45%
K-562; Homo sapiens, K562, one dose 10 µM
  inhibition at 10 µM: 91.5%
K-562; one dose 10 µM
  Growth %: 8.49%
NCI 60 cell line panel; Homo sapiens, 60 cell, one dose 10 μM, mean over the 60 cell lines, read-out: mean growth inhibition
  inhibition at 10 µM: 59%
NCI 60 cell line panel; one dose 10 µM, mean over the cell lines
  mean Growth %: 41.05%
EKVX; Homo sapiens
  inhibition at 10 µM: 24.7%
EKVX
  Growth %: 75.34%
UACC-257; Homo sapiens
  inhibition at 10 µM: 41.3%
UACC-257
  Growth %: 58.69%
SF-268; Homo sapiens
  inhibition at 10 µM: 47.6%
SF-268
  Growth %: 52.38%
SK-MEL-5; Homo sapiens
  inhibition at 10 µM: 93.2%
SK-MEL-5
  Growth %: 6.76%
DU-145; Homo sapiens
  inhibition at 10 µM: 70%
DU-145
  Growth %: 30.05%
HOP-92; Homo sapiens
  inhibition at 10 µM: 44.4%
HOP-92
  Growth %: 55.62%
SF-539; Homo sapiens
  inhibition at 10 µM: 89.2%
SF-539
  Growth %: 10.75%
RXF 393; Homo sapiens
  inhibition at 10 µM: 45.8%
RXF 393
  Growth %: 54.19%
SK-MEL-28; Homo sapiens
  inhibition at 10 µM: 33.2%
SK-MEL-28
  Growth %: 66.8%
MALME-3M; Homo sapiens
  inhibition at 10 µM: 36.9%
MALME-3M
  Growth %: 63.07%
BT-549; Homo sapiens
  inhibition at 10 µM: 55.8%
BT-549
  Growth %: 44.17%
Leukaemia panel
  inhibition at 10 µM: 91.4%
NCI-H460; Homo sapiens
  inhibition at 10 µM: 87.3%
NCI-H460
  Growth %: 12.73%
HT29; Homo sapiens, HT-29, one dose 10 µM
  inhibition at 10 µM: 87.7%
HT29; one dose 10 µM
  Growth %: 12.27%
SK-OV-3; Homo sapiens
  inhibition at 10 µM: 28.1%
SK-OV-3
  Growth %: 71.89%
SR; Homo sapiens
  inhibition at 10 µM: 83.8%
SR
  Growth %: 16.25%
OVCAR-3; Homo sapiens
  inhibition at 10 µM: 92.8%
OVCAR-3
  Growth %: 7.25%
KM12; Homo sapiens
  inhibition at 10 µM: 72%
KM12
  Growth %: 27.97%
